In the supplement of paper PMC10307832:

What was measured:
Assay in all cases: relative viability (nuclei count vs DMSO), 5 days (fraction); higher = more cells survive
[1] = compound: CCc1c2c(nc3ccc(OC(=O)N4CCC(N5CCCCC5)CC4)cc13)-c1cc3c(c(=O)n1C2)COC(=O)[C@]3(O)CC [Irinotecan] + C[C@]1(O)C[C@@H](c2nc(-c3ccc4ccc(-c5ccccc5)nc4c3)c3c(N)nccn32)C1 [Linsitinib] (partner 1 µM)
In short: (§1)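 Cells from lung cancer lines were seeded into 1536-well plates and, one day later, dosed by pin tool. Treatments were either a single drug or a fixed dose of an anchor drug with five library-drug doses (not always all listed) in √10 steps. After 5 days, nuclei were stained in a one-step fixation (final 0.05% Triton X-100, 1% formaldehyde, 1 ug/ml Hoechst) and counted on 4× images, and relative viability is the treated-to-vehicle nuclei ratio, as the median of duplicate plates.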

[2] = compound: CC[C@@H](C)CNCC(=O)N1CCC2=C([C@@H]1COC3=CC=CC(=C3)C)C=CS2 [RU-SKI 43] + Cc1cc(Nc2cc(N3CCN(C)CC3)nc(Sc3ccc(NC(=O)C4CC4)cc3)n2)n[nH]1 [Tozasertib] (partner 0.1 µM)
In short: as §1

[3] = compound: Cn1cc(-c2cnc3ccc4ccc(CS(=O)(=O)NCc5ccccn5)cc4c(=O)c3c2)cn1 [MK-8033] + N=C(N)NC(=N)NCCc1ccccc1 [Phenformin] (partner 250 µM)
In short: as §1

[4] = compound: CC[C@@H](C)CNCC(=O)N1CCC2=C([C@@H]1COC3=CC=CC(=C3)C)C=CS2 [RU-SKI 43] + O=C(CCCCCCC(=O)Nc1ccccc1)NO [Vorinostat] (partner 1 µM)
In short: as §1

## EBC-1
[1]; first compound 0.6325 µM
  relative viability: 0.675
[1]; first compound 2 µM
  relative viability: 0.405
[1]; first compound 6.325 µM
  relative viability: 0.211
[1]; first compound 20 µM
  relative viability: 0.177

## EKVX
[1]; first compound 0.6325 µM
  relative viability: 1.1
[1]; first compound 2 µM
  relative viability: 0.906
[1]; first compound 6.325 µM
  relative viability: 0.377
[1]; first compound 20 µM
  relative viability: 0.238
[2]; first compound 0.1 µM
  relative viability: 0.354
[2]; first compound 0.3162 µM
  relative viability: 0.379
[2]; first compound 1 µM
  relative viability: 0.374
[2]; first compound 3.162 µM
  relative viability: 0.372
[2]; first compound 10 µM
  relative viability: 0.31
[3]; first compound 0.02 µM
  relative viability: 0.222
[3]; first compound 0.06325 µM
  relative viability: 0.211
[3]; first compound 0.2 µM
  relative viability: 0.238
[3]; first compound 0.6325 µM
  relative viability: 0.22
[3]; first compound 2 µM
  relative viability: 0.254
[4]; first compound 0.1 µM
  relative viability: 0.658
[4]; first compound 0.3162 µM
  relative viability: 0.614
[4]; first compound 1 µM
  relative viability: 0.707
[4]; first compound 3.162 µM
  relative viability: 0.643
[4]; first compound 10 µM
  relative viability: 0.632

## EMC-BAC-2
[1]; first compound 0.6325 µM
  relative viability: 0.56
[1]; first compound 2 µM
  relative viability: 0.267
[1]; first compound 6.325 µM
  relative viability: 0.2
[1]; first compound 20 µM
  relative viability: 0.242
[2]; first compound 0.1 µM
  relative viability: 0.295
[2]; first compound 0.3162 µM
  relative viability: 0.235
[2]; first compound 1 µM
  relative viability: 0.262
[2]; first compound 3.162 µM
  relative viability: 0.296
[2]; first compound 10 µM
  relative viability: 0.249
[3]; first compound 0.02 µM
  relative viability: 0.554
[3]; first compound 0.06325 µM
  relative viability: 0.509
[3]; first compound 0.2 µM
  relative viability: 0.531
[3]; first compound 0.6325 µM
  relative viability: 0.556
[3]; first compound 2 µM
  relative viability: 0.494
[4]; first compound 0.1 µM
  relative viability: 0.526
[4]; first compound 0.3162 µM
  relative viability: 0.362
[4]; first compound 1 µM
  relative viability: 0.79
[4]; first compound 3.162 µM
  relative viability: 0.375
[4]; first compound 10 µM
  relative viability: 0.521

## EPLC-272H
[1]; first compound 0.6325 µM
  relative viability: 0.943
[1]; first compound 2 µM
  relative viability: 0.241
[1]; first compound 6.325 µM
  relative viability: 0.202
[1]; first compound 20 µM
  relative viability: 0.287
[2]; first compound 0.1 µM
  relative viability: 0.213
[2]; first compound 0.3162 µM
  relative viability: 0.226
[2]; first compound 1 µM
  relative viability: 0.445
[2]; first compound 3.162 µM
  relative viability: 0.242
[2]; first compound 10 µM
  relative viability: 0.207
[3]; first compound 0.02 µM
  relative viability: 0.347
[3]; first compound 0.06325 µM
  relative viability: 0.228
[3]; first compound 0.2 µM
  relative viability: 0.359
[3]; first compound 0.6325 µM
  relative viability: 0.325
[3]; first compound 2 µM
  relative viability: 0.331
[4]; first compound 0.1 µM
  relative viability: 0.467
[4]; first compound 0.3162 µM
  relative viability: 0.384
[4]; first compound 1 µM
  relative viability: 0.426
[4]; first compound 3.162 µM
  relative viability: 0.401
[4]; first compound 10 µM
  relative viability: 0.31

## H3255
[1]; first compound 0.6325 µM
  relative viability: 0.803
[1]; first compound 2 µM
  relative viability: 0.439
[1]; first compound 6.325 µM
  relative viability: 0.26
[1]; first compound 20 µM
  relative viability: 0.298
[2]; first compound 0.1 µM
  relative viability: 0.721
[2]; first compound 0.3162 µM
  relative viability: 0.726
[2]; first compound 1 µM
  relative viability: 0.292
[2]; first compound 3.162 µM
  relative viability: 0.76
[2]; first compound 10 µM
  relative viability: 0.489
[3]; first compound 0.02 µM
  relative viability: 0.341
[3]; first compound 0.06325 µM
  relative viability: 0.364
[3]; first compound 0.2 µM
  relative viability: 0.335
[3]; first compound 0.6325 µM
  relative viability: 0.326
[3]; first compound 2 µM
  relative viability: 0.37
[4]; first compound 0.1 µM
  relative viability: 0.838
[4]; first compound 0.3162 µM
  relative viability: 0.763
[4]; first compound 1 µM
  relative viability: 1.1
[4]; first compound 3.162 µM
  relative viability: 0.851
[4]; first compound 10 µM
  relative viability: 0.769

## HARA
[1]; first compound 0.6325 µM
  relative viability: 0.623
[1]; first compound 2 µM
  relative viability: 0.152
[1]; first compound 6.325 µM
  relative viability: 0.148
[1]; first compound 20 µM
  relative viability: 0.154
[2]; first compound 0.1 µM
  relative viability: 0.125
[2]; first compound 0.3162 µM
  relative viability: 0.0842
[2]; first compound 1 µM
  relative viability: 0.118
[2]; first compound 3.162 µM
  relative viability: 0.111
[2]; first compound 10 µM
  relative viability: 0.108
[3]; first compound 0.02 µM
  relative viability: 0.477
[3]; first compound 0.06325 µM
  relative viability: 0.406
[3]; first compound 0.2 µM
  relative viability: 0.396
[3]; first compound 0.6325 µM
  relative viability: 0.374
[3]; first compound 2 µM
  relative viability: 0.422
[4]; first compound 0.1 µM
  relative viability: 0.568
[4]; first compound 0.3162 µM
  relative viability: 0.52
[4]; first compound 1 µM
  relative viability: 0.485
[4]; first compound 3.162 µM
  relative viability: 0.517
[4]; first compound 10 µM
  relative viability: 0.548

## HCC-15
[1]; first compound 0.6325 µM
  relative viability: 0.458
[1]; first compound 2 µM
  relative viability: 0.204
[1]; first compound 6.325 µM
  relative viability: 0.152
[1]; first compound 20 µM
  relative viability: 0.158
[2]; first compound 0.1 µM
  relative viability: 0.43
[2]; first compound 0.3162 µM
  relative viability: 0.327
[2]; first compound 1 µM
  relative viability: 0.27
[2]; first compound 3.162 µM
  relative viability: 0.252
[2]; first compound 10 µM
  relative viability: 0.219
[3]; first compound 0.02 µM
  relative viability: 0.511
[3]; first compound 0.06325 µM
  relative viability: 0.467
[3]; first compound 0.2 µM
  relative viability: 0.421
[3]; first compound 0.6325 µM
  relative viability: 0.45
[3]; first compound 2 µM
  relative viability: 0.482
[4]; first compound 0.1 µM
  relative viability: 0.808
[4]; first compound 0.3162 µM
  relative viability: 0.932
[4]; first compound 1 µM
  relative viability: 0.881
[4]; first compound 3.162 µM
  relative viability: 0.839
[4]; first compound 10 µM
  relative viability: 0.869

## HCC-44
[1]; first compound 0.6325 µM
  relative viability: 0.677
[1]; first compound 2 µM
  relative viability: 0.305
[1]; first compound 6.325 µM
  relative viability: 0.168
[1]; first compound 20 µM
  relative viability: 0.249
[2]; first compound 0.1 µM
  relative viability: 0.962
[2]; first compound 1 µM
  relative viability: 0.903
[2]; first compound 3.162 µM
  relative viability: 1.02
[2]; first compound 10 µM
  relative viability: 0.87
[3]; first compound 0.02 µM
  relative viability: 0.209
[3]; first compound 0.06325 µM
  relative viability: 0.181
[3]; first compound 0.2 µM
  relative viability: 0.22
[3]; first compound 0.6325 µM
  relative viability: 0.252
[3]; first compound 2 µM
  relative viability: 0.208
[4]; first compound 0.1 µM
  relative viability: 1.14
[4]; first compound 0.3162 µM
  relative viability: 1.12
[4]; first compound 1 µM
  relative viability: 1.12
[4]; first compound 3.162 µM
  relative viability: 1.15
[4]; first compound 10 µM
  relative viability: 1.05

## HCC-78
[1]; first compound 0.6325 µM
  relative viability: 0.577
[1]; first compound 2 µM
  relative viability: 0.418
[1]; first compound 6.325 µM
  relative viability: 0.204
[1]; first compound 20 µM
  relative viability: 0.184
[2]; first compound 0.1 µM
  relative viability: 0.395
[2]; first compound 0.3162 µM
  relative viability: 0.569
[2]; first compound 1 µM
  relative viability: 0.432
[2]; first compound 3.162 µM
  relative viability: 0.406
[2]; first compound 10 µM
  relative viability: 0.318
[3]; first compound 0.02 µM
  relative viability: 0.806
[3]; first compound 0.2 µM
  relative viability: 0.668
[3]; first compound 0.6325 µM
  relative viability: 0.728
[3]; first compound 2 µM
  relative viability: 0.799
[4]; first compound 0.1 µM
  relative viability: 0.531
[4]; first compound 0.3162 µM
  relative viability: 0.378
[4]; first compound 1 µM
  relative viability: 0.469
[4]; first compound 3.162 µM
  relative viability: 0.475
[4]; first compound 10 µM
  relative viability: 0.439
